Entries after “also recorded” stand apart in the source; their conditions may differ. Like-named read-outs stand apart in the source and are kept apart here.
Legend:
[1] = tested on: P2X7 receptor (CD4+CD25+ population); experiment: Effect of P2X7 antagonists on PMB/ATP-induced depletion of CD4+CD25+ population in splenocytes (Example 2); assay type: cell-based, mice; conditions: for inhibition of the effect induced by ATP 100 μM over CD4+CD25+ population: BBG 100 nM (FIG. 5), A740003 (FIG. 6); for inhibition of the effect of low dose PMB and ATP over CD4+CD25+ populations: PPADS 10 μM, BBG 100 nM, PMB 1 μg/mL, ATP 60 μM and both, FIG. 4
Protocol: (§1) To determine the in vitro effect of polymyxin and other receptor modulators: P2X7, spleen from mice b6 and/or balbc were extracted, and splenocytes were isolated using repeated centrifugation, eliminating red cells for treatment with a lysis buffer ACK. Generally, the experiments were performed in cells obtained from animals b6. The obtained splenocytes are cultured in RPMI Medium supplemented with antibiotics and serum at 10%. Cells remain in rest for 2 hours at a concentration of 1 million cells/ml, after the same are breeding and incubated with purinergic agonists dissolved in PBS (ATP 0.1 μM-1,000 μM and NAD 0.01-1,000 μM), modulators of PMB receptor (0.001 up to 1,000 μg/m1) and gramicidine (0.001 up to 100 mg/ml). In the case of antagonists, these are used at concentrations which have been described as being more specific to P2X7 than other receptors.
Splenocytes were treated with PMB (Sigma-Aldrich, St Louis, Mont., USA) to different times and concentrations in presence of two modulators negative of the P2X7, PPADS activity and specific antagonist of P2X7 Brilliant Blue G (BBG) (see Brilliant Blue G Selectively Blocks ATP-Gated Rat P2X7 receptors. JIANG, 2000. 12). Cells were kept for 24 hrs in conditions of cell culture. Subsequently cells were recollected, blotted and analyzed by flow cytometry.

[2] = tested on: Melanome murine cells B16; experiment: Antitumor immune therapy: immunization with B16 apoptotic bodies, then tumor challenge (Example 4); assay type: in vivo, mice; conditions: for prophylaxis against the development of tumor b16: given with cell bodies; for protection of challenged animals (free of tumor): cell bodies (CA B16) alone or with the additive
Protocol: (§2) To evaluate the complementary PMB activity in antitumor therapy, first is determined the effect of this over the in vivo regulating T population. To this, animals having 6-15 weeks and different sex were subcutaneously injected with a solution containing PMB alone (between 4 to 400 μg total), ATP (between 0,4 a 40 mg total) or mixture thereof, in ratios which are not affected therebetween, the CD4CD25 foxp3 population. Animals were dead are different post-injection time, spleen was extracted, erythrocytes eliminated and T lymphocytes present evaluated. The results obtained herein allow determining that PMB injected deplexing regukating T lymphocytes under a transient way. To evaluate the complementary PMB activity in antitumor therapy, cells B16 were cultured under standard conditions in a culture DMEM medium with fetal bovine serum at 10% in a culture stove at 37° C. and 5% CO2. Cells were cultures and submitted to dead induced by deprivation of culture medium for 96 hours, into a culture stove. Cell bodies obtained were collected in sterility conditions and stored at a concentration estimated considering 1 million initial cells/ml. These bodies were prepared together with PMB and ATP inducing a reduction of T reg lymphocytes and injected 3 times each 7 days. After 7 days, once ended the immunization protocol, animals were challenged with 20.000 cells b16 alive obtained from exponential growing culture. Tumor growth was evaluated by hand after the first week daily and measure with a vernier calliper. The resuts obtained herein allow determining that PMB in vivo plus ATP and with cell bodies act in a prophylactic way increasing the number of animals free of tumor after the challenge with alive b16 cells.
Mice from 6 to 8 weeks old were treated with apoptotic bodies (CA) derived from Melanome murine cells B16 (2×10^4), with CA B16 plus ATP 500 μM, CA B16 plus PMB 10 mg/mL and with mixtures if the above three, the control was performed with the sterile immunization carrier PBS 1X.
Immunizations were performed by subcutaneous injection in the right flank in a final volume of 50 μL, at day 0, 7 and 21 of treatment. Day 0 marks the starting of the treatments. In day 28 post injection a tumor challenge was made. To that 10^4 tumor cells alive were injected in the left flank of the individual in a volume of 50 μL in sterile PBS 1X.
(§3) Mice were daily observed recording activity, weight and aspect according to parameters described by Morton y Griffiths, 1985 (see Morton D B, Griffiths P H. Guidelines on the recognition of pain, distress and discomfort in experimental animals and an hypothesis for assessment. Vet Rec. 1985 Apr. 20; 116(16):431-6). The tumor appearance was recorded and followed up to a tumor volume of 0.6 cm^3, in which animals were euthanized by cervical dislocation.

[3] = tested on: CD4+CD25+FOXP3+ lymphocyte populations (human Treg); experiment: Effect on human Treg lymphocyte populations in PBML from peripheral blood (Example 6); assay type: cell-based; conditions: 24 h; FIG. 11
Protocol: PBML 2×10^6 cells/ml obtained from peripheral blood extracted by centrifugation in gradient was cultured under standard conditions. Subsequently cells were treated with PMB (Sigma-Aldrich, St Louis, Mont., USA). The Treatments were kept for 24 h, in which cell remain in RPMI-1640 medium supplemented at 37° C. 5% CO2. After the treatments cells were harvested in buffer IF (PBS 2% SFB) cold. The obtained cells were blocked at 4° C. for 30 min in buffer IF. To determine the CD4+, CD8+ and CD4+CD25+FOXP3+ lymphocyte populations. After incubation cells were resuspended in buffer IF and analyzed by flow cytometry in the FACSCantoll equipment (Beckett Dickinson, Mississauga, Ontario, USA).

[4] = tested on: systemic regulating T lymphocytes in animal spleen; experiment: In vivo Treg lymphocyte depletion in spleen after subcutaneous injection (Examples 3 and 5); set-up: species or system mice C57/BL6; conditions: for death of systemic regulating T lymphocytes in spleen, drug alone: day 3 post challenge, PMB up to 400 μg total or ATP up to 50 μmoles, FIGS. 10A-10C
Protocol: as §2, with “The results obtained herein allow determining that PMB injected deplexing regukating T lymphocytes under a transient way.” left out, “calliper.” for “calliper. The resuts obtained herein allow determining that PMB in vivo plus ATP and with cell bodies act in a prophylactic way increasing the number of animals free of tumor after the challenge with alive b16 cells.”
Mice were dead, the spleen was extracted and then marking with α-CD4, αCD25, α-CD8 and α-Foxp3 antibodies were made.
Subcutaneous injections were made in mice C57/BL6 of 6 weeks old with different concentrations of PMB, ATP or mixing concentrations of both. Mice were dead, the spleen extracted and subsequently markings were made with α-CD4, αCD25, α-CD8 and α-Foxp3 antibodies.

[5] = tested on: CD4+, CD8+ lymphocyte populations; experiment: In vitro effect on CD8 and CD4 populations in total mouse splenocyte population, flow cytometry (Example 1); assay type: cell-based, mice C57/BL6
Protocol: To determine the in vitro effect of polymyxin and other receptor modulators: P2X7, spleen from mice b6 and/or balbc were extracted, and splenocytes were isolated using repeated centrifugation, eliminating red cells for treatment with a lysis buffer ACK. Generally, the experiments were performed in cells obtained from animals b6. The obtained splenocytes are cultured in RPMI Medium supplemented with antibiotics and serum at 10%. […]
Cells are cultured for different time under a RPMI culture environment supplemented with antibiotics (penicillin, streptomycin and fungizone) with serum fetal bovine serum at 10% in a culture stove at 37° C. and 5% CO2, which will be named as standard conditions. […] Samples were analyzed in a cytometer of low and analized to different subpopulations to different evaluated times. […]
Splenocytes 2×10^6 cells/ml obtained from spleen of mice C57/BL6 (6 weeks old) were cutured by 1 hour in plates 24 wells at 37° C., 5% CO2. […] After the incubation cells were re-suspended in buffer IF and analyzed by flow cytometry in the equipment FACSCantoll (Beckett Dickinson, Mississauga, Ontario, USA). […]

[6] = tested on: CD4+CD25+FOXP3+ lymphocyte populations (Treg); experiment: In vitro effect on Treg cells in total mouse splenocyte population, flow cytometry (Example 1); assay type: cell-based, mice C57/BL6; conditions: for modification of the ATP-induced effect on Treg cells: ATP response curve, FIGS. 3A and 3B
Protocol: as §1
Cells are cultured for different time under a RPMI culture environment supplemented with antibiotics (penicillin, streptomycin and fungizone) with serum fetal bovine serum at 10% in a culture stove at 37° C. and 5% CO2, which will be named as standard conditions. To evaluate the effect of the treatment over regulating T lymphocytes, samples were taken for the treatments (independients) at 24, 48 and 72 hours post challenge. The recovered lymphocytes were centrifuged at 800 g and processed to be marked with antibodies against CD4, CD8, CD25. […] Samples were analyzed in a cytometer of low and analized to different subpopulations to different evaluated times. The results obtained herein allow determining that PMB in vitro under the described conditions, selectively deplexing to splenocyte regulating T lymphocytes.
Splenocytes 2×10^6 cells/ml obtained from spleen of mice C57/BL6 (6 weeks old) were cutured by 1 hour in plates 24 wells at 37° C., 5% CO2. Lately, cells were treated with PMB (Sigma-Aldrich, St Louis, Mont., USA) to different times and concentrations (0-24-48 and 72 hours, concentrations from 0.01 a 1,000 μg/ml). The treatments were kept for 24, 48 and 72 h, in which cells were kept into RPMI-1640 medium supplemented at 37° C. 5% CO2. After the treatments cells were harvested in buffer IF (PBS 2% SFB) could without dragging the adherent population. The obtained cells were blocked at 4° C. for 30 min in buffer IF. To determine the CD4+, CD8+y CD4+CD25+FOXP3+ lymphocyte populations, about 10^6 cells to were incubated with Anti-CD8 Ly-2 (BDpharmigen, Mississauga, Ontario, USA) 4° C. for 30 min with constant stirring and CD4+ T lymphocytes and Treg were identified with the kit of marking cells Treg #3 (eBioscience, San Diego, Calif., USA)as the manufacturer protocol. After the incubation cells were re-suspended in buffer IF and analyzed by flow cytometry in the equipment FACSCantoll (Beckett Dickinson, Mississauga, Ontario, USA). The same experiments above described were repeated evaluating the effect of gramicidine, ATP and ATP in presence of two PMB concentrations.

[7] = Secondary effects on health condition and regular behavior of treated animals; assay type: in vivo, mice; conditions: effective dose in animals
Protocol: as §3

[8] = tested on: lymphoma EL4 y EL4/ADM, tumor cell lines C1498 y REH; conditions: cited from earlier work
[9] = total population of spleeny lymphocytes

COc1ccc(CC(=O)NC(N=C(NC#N)Nc2cccc3ncccc23)C(C)(C)C)cc1OC (stereo not drawn) [A740003]
inhibition of the effect induced by ATP 100 μM over CD4+CD25+ population [1]: inhibits only

Nc1ncnc2c1ncn2[C@@H]1O[C@H](COP(=O)(O)OP(=O)(O)OP(=O)(O)O)[C@@H](O)[C@H]1O [ATP]
prophylaxis against the development of tumor b16 [2]: induces prophylaxis
death of human Treg cells [3]: induces the death of Treg cells
death of systemic regulating T lymphocytes in spleen, drug alone [4]: does not induce the death

CCOc1ccc(Nc2ccc(/C(=C3C=C/C(=[N+](/CC)Cc4cccc(S(=O)(=O)[O-])c4)C=C/3C)c3ccc(N(CC)Cc4cccc(S(=O)(=O)[O-])c4)cc3C)cc2)cc1.[Na+] [BBG, Brilliant Blue G]
inhibition of the effect induced by ATP 100 μM over CD4+CD25+ population [1]: only inhibits
inhibition of the effect of low dose PMB and ATP over CD4+CD25+ populations [1]: are inhibited

Cc1nc(N=Nc2ccc(S(=O)(=O)O)cc2S(=O)(=O)O)c(COP(=O)(O)O)c(C=O)c1O [PPADS]
inhibition of the effect of low dose PMB and ATP over CD4+CD25+ populations [1]: are inhibited

gramicidine
effect over CD8 / CD4 (T helper, T cytotoxic) populations [5]: does not induce changes
effect over Treg (CD4+CD25+) population [6, 9]: does not induce changes

polymyxin B [PMB]
dependence of Treg depletion on P2X7 receptor activation ([1]; 24 hrs culture with PPADS or BBG): partially depends on the P2X7 receptor activation
protection of challenged animals (free of tumor) ([2]; day 20 after inoculation of tumor cells, ATP 500 μM, PMB 10 mg/mL): 60%
protection of challenged animals (free of tumor) ([2]; day 60 post inoculation): 20%
prophylaxis against the development of tumor b16 [2]: induces prophylaxis
increase of effectiveness of antitumor immunotherapy based on tumor cell bodies ([2]; murine melanoma model): 50%
effect over CD8 / CD4 (T helper, T cytotoxic) populations [5, 9]: does not significantly affect; also recorded: without affecting the CD8 population neither the CD4 population
secondary effects over health condition and regular behavior [7]: does not demonstrate the appearance of secondary effects
cell death in eukaryote tumor cell lines [8]: induces cell death
death of human Treg cells [3]: induces the death of Treg cells
potentiation of Treg lymphocyte depletion in vivo ([4]; after 72 hrs of in vivo exposition, PMB 150 and 350 μg/Kg with ATP 1 g/Kg): can potentiate the deplexion
PMB dose giving maximum depletion of Tregs lymphocytes ([4]; at a determined ATP dose (1 g/Kg), subcutaneous, FIG. 8): 350 µg/kg
dose behavior in depletion of Tregs lymphocytes ([4]; at a determined ATP dose, FIG. 8): linear behavior
death of systemic regulating T lymphocytes in spleen, drug alone [4]: does not induce the death
depleting concentration relative to that used in clinical and therapeutic procedures [6]: 100 times lower
modification of the ATP-induced effect on Treg cells ([6]; PMB at 1 μg/ml): slightly modifies the effect induced by ATP
modification of the ATP-induced effect on Treg cells ([6]; PMB at 10 μg/ml): produces a significant change in the response curve to ATP
effect over Treg (CD4+CD25+) population [6, 9]: able to induce the death
PMB concentration at which PMB itself induces Treg cell depletion ([6]; total population of spleeny lymphocytes, FIGS. 1A and 1B): ≥ 1 µg/mL
